How the values were obtained:
[1] = test system: S. aureus MSRA strain NRS384; assay: S. aureus IV advanced disseminated infection mouse model (8 day model, Balb/c mice), kidney burden; type: in vivo
Method: To test the efficacy of anti-S. aureus Ab-antibiotic ncADCs of the disclosure in combination therapy with standard of care vancomycin in vivo, two different 8 day intravenous disseminated infection models was performed. […] S. aureus MSRA strain NRS384 was grown overnight in Tryptic soy broth (TSB) and sub-cultured to mid-logarithmic phase. Bacteria were then washed twice with PBS and resuspended in PBS at a concentration of 1.5×10^8 cfu/mL. Balb/c mice were then infected intravenously through the tail vein with 100 uL of the bacterial suspension, for a final infectious dose of […]. In the first study, mice were treated either vancomycin alone, an isotype control antibody plus vancomycin, an isotype control Ab-ncADC (Isotype control-36) plus vancomycin, an anti-WTA antibody plus vancomycin, an anti-WTA Ab-Antibiotic ncADC (anti-WTA Ab-Antibiotic ncADC-36), or a different anti-WTA Ab-Antibiotic ncADC (anti-WTA Ab-Antibiotic ncADC-25) plus vancomycin. Mice were also treated either vancomycin alone, an isotype control antibody plus vancomycin, an isotype control Ab-Antibiotic ncADC (Isotype control Ab-Antibiotic ncADC-36) plus vancomycin, an anti-Protein A antibody plus vancomycin, or an anti-Protein A Ab-Antibiotic ncADC (anti-Protein A Ab-Antibiotic ncADC-36).
In the second study, mice were treated either vancomycin alone, an isotype control antibody plus vancomycin, an isotype control Ab-Antibiotic ncADC (Isotype control Ab-Antibiotic ncADC-36) plus vancomycin, a second isotype control Ab-Antibiotic ncADC (Isotype control Ab-Antibiotic ncADC-25) plus vancomycin, a third isotype control Ab-Antibiotic ncADC (Isotype control Ab-Antibiotic ncADC-21) plus vancomycin, an anti-WTA antibody plus vancomycin, an anti-WTA Ab-Antibiotic ncADC (anti-WTA Ab-Antibiotic ncADC-36), a second anti-WTA Ab-Antibiotic ncADC (anti-WTA Ab-Antibiotic ncADC-25) plus vancomycin, or a third anti-WTA Ab-Antibiotic ncADC (anti-WTA Ab-Antibiotic ncADC-21) plus vancomycin. In all studies, for treatment groups that included vancomycin, it was dosed from three to seven days post infection at 110 mg/kg subcutaneously twice daily. For treatment groups that included antibodies and ncADCs, they were administered four days after infection subcutaneously at 2 mg/kg for the first study or 5 mg/kg for the second study. A no treatment infected control and an uninfected control were included in each of the studies. Mice were monitored for weight loss and body conditioning score throughout the infection. At eight days post infection, mice were euthanized, and the S. aureus kidney burden was quantified. For quantification, the kidneys were homogenized followed by enumeration of colony forming units through serial dilution in PBS and plating onto trypticase soy agar plates. Data points represent the kidney burden from individual mice tested.

[2] = test system: S. aureus MSRA strain NRS384; assay: S. aureus IV disseminated infection mouse model (4 day model, Balb/c mice), kidney burden; type: in vivo; details: 4 day infection model, mAb or conjugate 1 mg/kg, with vancomycin treatment, limit of detection 250 cfu
Method: S. aureus MSRA strain NRS384 was grown overnight in Tryptic soy broth (TSB) and sub-cultured to mid-logarithmic phase. Bacteria were then washed twice with PBS and resuspended in PBS at a concentration of 1.5×10^8 cfu/mL. […] Mice were monitored for weight loss and body conditioning score throughout the infection. […] For quantification, the kidneys were homogenized followed by enumeration of colony forming units through serial dilution in PBS and plating onto trypticase soy agar plates.

For CN[C@H](CC(C)C)C(=O)N[C@H]1C(=O)N[C@@H](CC(N)=O)C(=O)N[C@H]2C(=O)N[C@H]3C(=O)N[C@H](C(=O)N[C@H](C(=O)O)c4cc(O)cc(O)c4-c4cc3ccc4O)[C@H](O)c3ccc(c(Cl)c3)Oc3cc2cc(c3O[C@@H]2O[C@H](CO)[C@@H](O)[C@H](O)[C@H]2O[C@H]2C[C@](C)(N)[C@H](O)[C@H](C)O2)Oc2ccc(cc2Cl)[C@H]1O [vancomycin], the Median cfu/kidney pair ([1]; Balb/c mice, 8 day model, first study (Table 37, anti-Protein A), mAb or conjugate 2 mg/kg, with vancomycin treatment) was 7.25E+06 cfu/kidney pair, the Median cfu/kidney pair ([1]; Balb/c mice, 8 day model, second study (Table 38), mAb or conjugate 5 mg/kg, with vancomycin treatment) was 1.88E+06 cfu/kidney pair and the “reduction of S. aureus kidney burden” value ([1]; first study, vancomycin alone 110 mg/kg subcutaneously twice daily day 3 to 7, kidneys at day 8) was 1-2 logs. The Median cfu/kidney pair ([1]; in vivo) was 7.25E+06 cfu/kidney pair, the “reduction of S. aureus kidney bacterial burden” value ([1]; second study, vancomycin alone) was 1-2 logs and the Median cfu/kidney pair [2] was 4.38E+05 cfu/kidney pair.

From patent US11666658B2, “Rifamycin analogs and antibody-drug conjugates thereof” (Regeneron Pharmaceuticals, Inc., priority 2018, dated 2023)
